# Columns and labels:
# [1] = tested on: DHEA specific membrane receptors; assay: [3H]DHEA competition binding on isolated PC12 cell membranes; set-up: species or system rat
# Description: PC12 rat sympathoadrenal cells were cultured in 225 cm^2 flasks and, after washing twice with PBS, they were detached from the flasks by vigorous shaking. After a centrifugation at 1500 g, they were homogenized by sonication, in a 50 mM Tris-HCl buffer pH 7.4 at 4° C., containing freshly added protease inhibitors (1 mM PMSF and 1 μg/ml aprotinin). Unbroken cells were removed by centrifugation at 1500 g (10 min at 4° C.), and membranes were collected by centrifuging at 102,000 g for 1 hr at 4° C. Membranes were washed once with Tris-HCl, briefly acidified at 4° C. (for 3 min) with 50 mM glycine (pH 5.0), and re-suspended in the same buffer. Protein content was assayed by the method of Bradford, using reagents from Bio-Rad (Hercules, Calif.). Membranes (at a final concentration of 2 mg/ml) were incubated with 5 nM [^3H]DHEA, in the absence (to determine the total binding) or presence of unlabeled neurosteroids and their synthetic spiro analogs, at concentrations varying from 10^−12 to 10^−6 M and at a final volume of 100 μl, in Tris-HCl buffer (50 mM, pH 7.4). Following a […] incubation in a water bath, at 37° C., membranes were collected on GF/B filters, prewet in 0.5% PEI solution at 4° C. The filters were washed three times with ice-cold Tris-HCl, dried, supplemented with scintillation medium (Sigma Hellas, Athens, Greece) and counted in a β-scintillation counter (Perkin Elmer, Foster City, Calif.) with 60% efficiency for Tritium.
# [2] = tested on: Neural-crest derived PC12 cells; assay: APOPercentage apoptosis assay, serum-deprivation induced apoptosis of PC12 cells; format: cell-based, rat; details: Rattus norvegicus, PC-12, absence of serum 12 hours, ApoPercentage assay (FIG. 2), read-out: IC50 of anti-apoptotic, cytoprotective effect
# Description: Neural-crest derived PC12 cells were maintained in culture at 5% CO2, at 37° C., in RPMI 1640 medium containing 2 mM L-glutamine, 15 mM HEPES, 100 units/ml penicillin, 0.1 mg/ml streptomycin, 10% horse serum, and 5% foetal calf serum. Serum free medium was supplemented with 1% bovine serum albumin (BSA). Different steroids, used at various concentrations, were initially diluted in ethanol. The final concentration of ethanol in each well, including controls was 0.01%. Conjugate DHEA-BSA was initially diluted in Phosphate Buffer Saline (PBS).
# Cells were cultured in the absence of serum for 12 hours, supplemented with DHEA and various synthetic spiro neurosteroids at 10 nM. Cell apoptosis was quantitated with two different methods: The APOPercentage Apoptosis Assay (Biocolor Ltd., Belfast, N. Ireland) was used to quantify apoptosis, according to the manufacturer's instructions. Apoptosis was quantified following cell lysis by measuring the dye incorporated in apoptotic cells at 550 nm (reference filter 620 nm) using a colour filter microplate colorimeter (Dynatech MicroElisa reader, Chantilly, Va.) (see FIGS. 1 and 2). FACS Analysis: FACS analysis of apoptotic cells was performed according to our protocol (Proc Natl Acad Sci USA 101,8209 (2004)). Flow cytometry was performed with FACScan (Becton Dickinson, Heidelberg, Germany) and the results were analysed with the FACScan and Cell Quest softwares (see FIG. 3).
# [3] = tested on: Bcl-2 and Bcl-xL proteins; assay: Western blot of anti-apoptotic Bcl-2 and Bcl-xL proteins in serum-deprived PC12 cells; format: cell-based, rat; details: 10 nM neurosteroid (FIG. 4)
# Description: Neural-crest derived PC12 cells were cultured for 8 hours in the absence of serum, but supplemented with 10 nM of various neurosteroids. At the end of incubation cell lysates were subjected to electrophoresis through a 12% SDS-polyacrylamide gel. Then, proteins were transferred to nitrocellulose membranes, which were processed according to standard Western blotting procedures. To detect protein levels, membranes were incubated with the appropriate antibodies: Bcl-2, (Santa Cruz Biotechnology Inc., Santa Cruz, Calif., dilution 1:100) Bcl-xL (Cell Signalling Technology Inc., Beverly, Mass., dilution 1:100). A PC-based Image Analysis program was used to quantify the intensity of each band (Image Analysis, Inc., Ontario, Canada). To normalize for protein content, the blots were stripped and stained with anti-actin antibodies (Chemicon, Temecula, Calif., dilution 1:400); the concentration of each target protein was normalized versus actin.
# [4] = tested on: Dopaminergic neural-crest derived PC12 cells; assay: Dopamine secretion from dopaminergic PC12 cells (radioimmunoassay); format: cell-based, rat; details: 10^-7 M
# Description: Dopaminergic neural-crest derived PC12 cells were grown in 6-well plates, coated with poly-L-lysine, at a concentration of 10^6 cells/well. Cells were incubated with neurosteroids or the vehicle for several time periods; for the short-term experiments the incubation time ranged from 5 to 30 minutes and for the long-term from 3 to 48 hours. 1 mL of supernatants were transferred to tubes containing 200 μl 0.1 M HCl for measurement of dopamine, which was measured by radioimmunoassay (TriCat™ RIA, RE29395, IBL Immuno Biological Lab., Hamburg, Germany) using ^125I as a tracer. The analytical sensitivity of the method was 30 pg/ml, its intra-assay CV was 9.5%, and its inter-assay CV was 16.7%. The cross reactivity between dopamine and norepinephrine was <0.013%
structure (smiles),measurement,setting,value
"C[C@]12CC[C@H](O)CC1=CCC1C2CC[C@@]2(C)C1CC[C@@]21CO1 (stereo partly drawn) [BNN-50, 17β-spiro-[5-androsten-17,2′-oxiran]-3β-ol]",displacement of specific [3H]DHEA binding,"[1]; at 1 μM, PC12 cell membranes",approximately 60%
same,Kd,"[1]; isolated PC12 cell membranes, 5 nM [3H]DHEA (FIG. 5)",0.016 nM
same,IC50,[2],0.088 nM
same,levels of anti-apoptotic Bcl-2 and Bcl-xL proteins,[3],preventing this effect
same,"dopamine levels in culture media, long-term",[4]; 3 to 48 hours (FIG. 6B),increase of dopamine levels peaking at 24 h
same,"stimulation of dopamine secretion, short-term","[4]; 5 to 30 min, effect within 10 min (FIG. 6A)",doubling their levels

# From patent publication US9777037B2, “Neurosteroid compounds” (BIONATURE E. A. LTD., priority 2007, dated 2017)
